The values that follow come from article PMC5397059, “Design, synthesis and structure-activity relationship study of wollamide B; a new potential anti TB agent” (PLoS ONE, 2017).

Read-outs that look alike come from different tables or passages of the source.

The conditions of this series: amide bond, 18-membered ring, HATU/HOBt/DIEA.

`CC[C@H](C)[C@@H]1NC(=O)[C@@H](CC(C)C)NC(=O)[C@H](CC(C)C)NC(=O)[C@H](Cc2cn(C(=O)OC(C)(C)C)c3ccccc23)NC(=O)[C@@H](CCCNC(=O)OC(C)(C)C)NC(=O)[C@H](COC(C)(C)C)NC1=O` [cyclo(Trp(Boc)-Leu-D-Leu-Ile-Ser(tBu)-D-Orn(Boc))] returned a ring closure, isolated yield (from H-Trp(Boc)-Leu-dLeu-Ile-Ser(tBu)-dOrn(Boc)-OH) of 68%. Compound `CC(C)C[C@H]1NC(=O)[C@H](CC(C)C)N(C)C(=O)[C@H](Cc2cn(C(=O)OC(C)(C)C)c3ccccc23)NC(=O)[C@@H](CCCNC(=O)OC(C)(C)C)NC(=O)[C@H](CC(=O)NC(c2ccccc2)(c2ccccc2)c2ccccc2)NC(=O)[C@H](C(C)C)N(C)C1=O` [cyclo (Trp(Boc)-N-Me-Leu-D-Leu-N-Me-Val-Asn(Trt)-D-Orn(Boc))] returned a ring closure, isolated yield (from H-Trp(Boc)-MeLeu-dLeu-MeVal-Asn(Trt)-dOrn(Boc)-OH) of 73%. In the case of `CC(C)C[C@@H]1NC(=O)[C@H](Cc2cn(C(=O)OC(C)(C)C)c3ccccc23)NC(=O)[C@@H](CCCNC(=O)OC(C)(C)C)NC(=O)[C@H](CC(=O)NC(c2ccccc2)(c2ccccc2)c2ccccc2)NC(=O)[C@H](C(C)C)N(C)C(=O)[C@@H](CC(C)C)NC1=O` [cyclo(D-Leu-N-Me-Val-Asn(Trt)-D-Orn(Boc)-Trp(Boc)-Leu)], the ring closure, isolated yield (from H-dLeu-MeVal-Asn(Trt)-dOrn(Boc)-Trp(Boc)-Leu-OH) was determined as 60%. Turning to `CC[C@H](C)[C@@H]1NC(=O)[C@H](Cc2cn(C(=O)OC(C)(C)C)c3ccccc23)NC(=O)[C@@H](CCCNC(=O)OC(C)(C)C)NC(=O)[C@H](CC(=O)NC(c2ccccc2)(c2ccccc2)c2ccccc2)NC(=O)[C@H](C(C)C)NC(=O)[C@@H](CC(C)C)NC1=O` [cyclo(Asn(Trt)-D-Orn(Boc)-Trp(Boc)-Ile-D-Leu-Val)], the ring closure, isolated yield (from H-Asn(Trt)-dOrn(Boc)-Trp(Boc)-Ile-dLeu-Val-OH) was 47%.

Regarding `CC(C)C[C@H]1NC(=O)[C@H](CC(C)C)N(C)C(=O)[C@H](Cc2cn(C(=O)OC(C)(C)C)c3ccccc23)NC(=O)[C@@H](CCCNC(=O)OC(C)(C)C)NC(=O)[C@H](CC(=O)NC(c2ccccc2)(c2ccccc2)c2ccccc2)N(C)C(=O)[C@H](C(C)C)NC1=O` [cyclo(Val-N-Me-Asn(Trt)-D-Orn(Boc)-Trp(Boc)-N-Me-Leu-D-Leu)], where the note is “from H-Val-MeAsn(Trt)-dOrn(Boc)-Trp(Boc)-MeLeu-dLeu-OH”, the ring closure, isolated yield was 80%. `CC(C)C[C@@H]1NC(=O)[C@H](Cc2cn(C(=O)OC(C)(C)C)c3ccccc23)NC(=O)[C@@H](CCCNC(=O)OC(C)(C)C)NC(=O)[C@H](CC(=O)NC(c2ccccc2)(c2ccccc2)c2ccccc2)NC(=O)[C@H](C(C)C)NC(=O)[C@@H](C)NC1=O` [cyclo(Trp(Boc)-D-Orn(Boc)-Asn(Trt)-Val-D-Ala-Leu)] displayed a ring closure, isolated yield (from H-dAla-Val-Asn(Trt)-dOrn(Boc)-Trp(Boc)-Leu-OH) of 64%.

With `CC(C)C[C@@H]1NC(=O)[C@H](C)NC(=O)[C@@H](CCCNC(=O)OC(C)(C)C)NC(=O)[C@H](CC(=O)NC(c2ccccc2)(c2ccccc2)c2ccccc2)NC(=O)[C@H](C(C)C)NC(=O)[C@@H](CC(C)C)NC1=O` [cyclo(Ala-D-Orn (Boc)-Asn(Trt)-Val-D-Leu-Leu)], under “from H-dLeu-Val-Asn(Trt)-dOrn(Boc)-Ala-Leu-OH”, the ring closure, isolated yield amounted to 43%.

For the compound `CC[C@H](C)[C@@H]1NC(=O)[C@@H](CC(C)C)NC(=O)[C@H](CC(C)C)NC(=O)[C@H](Cc2cn(C(=O)OC(C)(C)C)c3ccccc23)NC(=O)[C@@H](CCCNC(=N)NS(=O)(=O)c2c(C)c(C)c3c(c2C)CC(C)(C)O3)NC(=O)[C@H](CC(=O)NC(c2ccccc2)(c2ccccc2)c2ccccc2)NC1=O` [cyclo (D-Leu-Ile-Asn(Trt)-D-Arg (Pbf)-Trp(Boc)-Leu)], the ring closure, isolated yield (from H-dLeu-Ile-Asn(Trt)-dArg(Pbf)-Trp(Boc)-Leu-OH) came to 70%. `CSCC[C@@H]1NC(=O)[C@@H](CC(C)C)NC(=O)[C@H](CC(C)C)NC(=O)[C@H](Cc2cn(C(=O)OC(C)(C)C)c3ccccc23)NC(=O)[C@@H](CCCNC(=O)OC(C)(C)C)NC(=O)[C@H](CC(=O)NC(c2ccccc2)(c2ccccc2)c2ccccc2)NC1=O` [cyclo (D-Leu-Met-Asn(Trt)-D-Orn(Boc)-Trp(Boc)-Leu)]: for the setting “from H-dLeu-Met-Asn(Trt)-dOrn(Boc)-Trp(Boc)-Leu-OH”, the ring closure, isolated yield worked out at 40%.

Take `CC[C@H](C)[C@@H]1NC(=O)[C@@H](CC(C)C)NC(=O)[C@H](CC(C)C)NC(=O)[C@H](Cc2cn(C(=O)OC(C)(C)C)c3ccccc23)NC(=O)[C@@H](CCCNC(=O)OC(C)(C)C)NC(=O)[C@H](CC(=O)NC(c2ccccc2)(c2ccccc2)c2ccccc2)NC1=O` [cyclo (D-Leu-Ile-Asn(Trt)-D-Orn(Boc)-Trp(Boc)-Leu)]: the ring closure, isolated yield (from H-dLeu-Ile-Asn(Trt)-dOrn(Boc)-Trp(Boc)-Leu-OH) was found to be 52%. Where the note is “from H-dLeu-Val-dOrn(Boc)-dOrn(Boc)-Trp(Boc)-Leu-OH”, `CC(C)C[C@@H]1NC(=O)[C@H](Cc2cn(C(=O)OC(C)(C)C)c3ccccc23)NC(=O)[C@@H](CCCNC(=O)OC(C)(C)C)NC(=O)[C@@H](CCCNC(=O)OC(C)(C)C)NC(=O)[C@H](C(C)C)NC(=O)[C@@H](CC(C)C)NC1=O` [cyclo(D-Leu-Val-D-Orn(Boc)-D-Orn(Boc)-Trp(Boc)-Leu)] yielded a ring closure, isolated yield of 40%. As to `CC(C)C[C@@H]1NC(=O)[C@H](Cc2cn(C(=O)OC(C)(C)C)c3ccccc23)NC(=O)[C@@H](CCCNC(=O)OC(C)(C)C)NC(=O)[C@H](CC(=O)NC(c2ccccc2)(c2ccccc2)c2ccccc2)NC(=O)[C@H](C(C)C)NC(=O)[C@@H](CC(C)C)NC1=O` [cyclo (Trp (Boc)-D-Orn(Boc)-Asn(Trt)-Val-D-Leu-Leu)], the ring closure, isolated yield (from H-dLeu-Val-Asn(Trt)-dOrn(Boc)-Trp(Boc)-Leu-OH) is 68%.

The compound `CC(C)C[C@@H]1NC(=O)[C@H](Cc2cn(C(=O)OC(C)(C)C)c3ccccc23)NC(=O)[C@@H](CCCNC(=O)OC(C)(C)C)NC(=O)[C@H](CC(=O)NC(c2ccccc2)(c2ccccc2)c2ccccc2)N(C)C(=O)[C@H](C(C)C)NC(=O)[C@@H](CC(C)C)N(C)C1=O` [cyclo(Trp(Boc)-Leu-N-Me-D-Leu-Val-N-Me-Asn(Trt)-D-Orn(Boc))] displayed a ring closure, isolated yield (from H-Trp(Boc)-Leu-dMeLeu-Val-MeAsn(Trt)-dOrn(Boc)-OH) of 60%. `CC(C)C[C@@H]1NC(=O)[C@H](Cc2cn(C(=O)OC(C)(C)C)c3ccccc23)NC(=O)[C@@H](CCCNC(=O)OC(C)(C)C)NC(=O)[C@H](CC(=O)NC(c2ccccc2)(c2ccccc2)c2ccccc2)NC(=O)[C@H](C(C)C)NC(=O)[C@@H](Cc2ccc(Cl)cc2)NC1=O` [cyclo(D-Phe(4-Cl)-Val-Asn(Trt)-D-Orn(Boc)-Trp(Boc)-Leu)] returned a ring closure, isolated yield (from H-dPhe(4-Cl)-Val-Asn(Trt)-dOrn(Boc)-Trp(Boc)-Leu-OH) of 53%. In turn, `CC(C)C[C@@H]1NC(=O)[C@H](Cc2cn(C(=O)OC(C)(C)C)c3ccccc23)NC(=O)[C@@H](CCCNC(=O)OC(C)(C)C)NC(=O)[C@H](CC(=O)NC(c2ccccc2)(c2ccccc2)c2ccccc2)NC(=O)[C@H](C)NC(=O)[C@@H](CC(C)C)NC1=O` [cyclo(Trp(Boc)-D-Orn(Boc)-Asn(Trt)-Ala-D-Leu-Leu)] had a ring closure, isolated yield (from H-dLeu-Ala-Asn(Trt)-dOrn(Boc)-Trp(Boc)-Leu-OH) of 56%.

The compound `CC(C)C[C@H]1NC(=O)[C@H](C)NC(=O)[C@H](Cc2cn(C(=O)OC(C)(C)C)c3ccccc23)NC(=O)[C@@H](CCCNC(=O)OC(C)(C)C)NC(=O)[C@H](CC(=O)NC(c2ccccc2)(c2ccccc2)c2ccccc2)NC(=O)[C@H](C(C)C)NC1=O` [cyclo(Trp (Boc)-D-Orn(Boc)-Asn(Trt)-Val-D-Leu-Ala)] registered a ring closure, isolated yield (from H-dLeu-Val-Asn(Trt)-dOrn(Boc)-Trp(Boc)-Ala-OH) of 45%. For the compound `CC(C)C[C@@H]1NC(=O)[C@H](Cc2cn(C(=O)OC(C)(C)C)c3ccccc23)NC(=O)[C@@H](CCCNC(=O)OC(C)(C)C)NC(=O)[C@H](C)NC(=O)[C@H](C(C)C)NC(=O)[C@@H](CC(C)C)NC1=O` [cyclo(Trp(Boc)-D-Orn(Boc)-Ala-Val-D-Leu-Leu)], the ring closure, isolated yield (from H-dLeu-Val-Ala-dOrn(Boc)-Trp(Boc)-Leu-OH) came to 56%. As for `CC[C@H](C)[C@@H]1NC(=O)[C@H](CC(C)C)NC(=O)[C@H](Cc2cn(C(=O)OC(C)(C)C)c3ccccc23)NC(=O)[C@@H](CCCNC(=O)OC(C)(C)C)NC(=O)[C@H](CC(=O)NC(c2ccccc2)(c2ccccc2)c2ccccc2)NC(=O)[C@H](C(C)C)NC1=O` [cyclo(Asn(Trt)-D-Orn(Boc)-Trp(Boc)-Leu-Ile-Val)], the ring closure, isolated yield (from H-Asn(Trt)-dOrn(Boc)-Trp(Boc)-Leu-Ile-Val-OH) turned out to be 47%. `CC(C)C[C@@H]1NC(=O)[C@@H](CC(C)C)NC(=O)[C@H](C(C)C)NC(=O)[C@H](CC(=O)NC(c2ccccc2)(c2ccccc2)c2ccccc2)NC(=O)[C@@H](CCCNC(=O)OC(C)(C)C)NC(=O)[C@H](Cc2cn(C(=O)OC(C)(C)C)c3ccccc23)NC1=O` [cyclo(Trp (Boc)-D-Orn (Boc)-Asn(Trt)-Val-D-Leu-Leu)]: the ring closure, isolated yield (from H-Trp(Boc)-dOrn(Boc)-Asn(Trt)-Val-dLeu-Leu-OH, DMF, 1.0 mM) was determined as 50%. As for `CC[C@H](C)[C@@H]1NC(=O)[C@H]([C@@H](C)CC)NC(=O)[C@@H](CC(C)C)NC(=O)[C@H](CC(C)C)NC(=O)[C@H](Cc2cn(C(=O)OC(C)(C)C)c3ccccc23)NC(=O)[C@@H](CCCNC(=O)OC(C)(C)C)NC1=O` [cyclo(D-Leu-Ile-Ile-D-Orn(Boc)-Trp(Boc)-Leu)], under “from H-dLeu-Ile-Ile-dOrn(Boc)-Trp(Boc)-Leu-OH”, the ring closure, isolated yield amounted to 54%.
